pEC50, pIC50: −log10 of the molar value. Structures can show the parent of a compound that is named as a salt. Where two headings read alike, the source gives them in different places.
How the values were obtained:
[1] = tested on: Parathyroid cells; settings: read-out: EC50 for mobilization of intracellular calcium; cited from earlier work
[2] = target: T1, human calcium receptor (Homo sapiens, UniProt P41180); experiment: Calcium Receptor Inhibitor Assay; format: cell-based
T1 construct: expressed in transfected cells
T1 sequence (P41180 20-1078): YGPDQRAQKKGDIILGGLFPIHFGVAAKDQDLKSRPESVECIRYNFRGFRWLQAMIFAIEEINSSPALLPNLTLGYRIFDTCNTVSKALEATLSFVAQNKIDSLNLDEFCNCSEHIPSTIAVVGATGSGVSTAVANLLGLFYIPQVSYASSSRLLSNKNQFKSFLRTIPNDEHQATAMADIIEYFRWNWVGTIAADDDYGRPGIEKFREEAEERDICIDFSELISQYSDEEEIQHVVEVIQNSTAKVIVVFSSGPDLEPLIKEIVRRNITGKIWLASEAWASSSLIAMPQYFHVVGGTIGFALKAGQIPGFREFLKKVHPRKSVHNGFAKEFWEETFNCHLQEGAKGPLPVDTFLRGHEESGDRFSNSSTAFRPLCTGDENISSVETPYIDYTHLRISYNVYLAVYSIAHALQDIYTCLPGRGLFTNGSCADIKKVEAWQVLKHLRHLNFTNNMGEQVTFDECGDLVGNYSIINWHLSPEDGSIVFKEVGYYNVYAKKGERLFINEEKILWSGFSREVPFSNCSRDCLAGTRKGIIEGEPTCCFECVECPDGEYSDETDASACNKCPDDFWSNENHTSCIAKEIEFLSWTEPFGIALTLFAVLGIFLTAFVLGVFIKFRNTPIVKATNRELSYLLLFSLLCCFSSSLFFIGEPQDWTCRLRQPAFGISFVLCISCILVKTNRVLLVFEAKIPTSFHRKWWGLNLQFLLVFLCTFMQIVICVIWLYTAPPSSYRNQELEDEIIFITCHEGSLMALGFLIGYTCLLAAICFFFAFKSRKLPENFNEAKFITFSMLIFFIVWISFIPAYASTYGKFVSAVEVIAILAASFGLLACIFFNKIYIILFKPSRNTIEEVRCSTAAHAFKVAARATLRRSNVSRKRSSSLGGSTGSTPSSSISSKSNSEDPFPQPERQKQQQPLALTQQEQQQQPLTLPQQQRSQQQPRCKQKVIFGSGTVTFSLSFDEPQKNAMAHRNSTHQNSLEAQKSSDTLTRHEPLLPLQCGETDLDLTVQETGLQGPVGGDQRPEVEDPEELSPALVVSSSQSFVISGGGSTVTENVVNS
In short: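 Intracellular Ca^2+ measured with fluo-3 at 37° C in stirred cell suspension. Buffer held 1 mM CaCl2 and 1 mg/mL D-glucose. Compound or vehicle added 90 seconds before extracellular Ca^2+ was raised from 1 to 2 mM, and calcilytic activity scored as concentration-dependent block of the intracellular Ca^2+ rise.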

[3] = HEK 293 4.0–7 cells stably expressing the human calcium receptor, fluo-3, read-out: IC50 for blocking increases of intracellular Ca2+ elicited by extracellular Ca2+

gentamicin
pEC50 [1]: 3.82

[H]/N=C(/N)N[C@H]1[C@H](O)[C@@H](O)[C@H](O[C@@H]2O[C@@H](C)[C@](O)(C=O)[C@H]2O[C@@H]2O[C@@H](CO)[C@H](O)[C@@H](O)[C@@H]2NC)[C@@H](N/C(N)=N\[H])[C@@H]1O [streptomycin]
pEC50 [1]: 3.22

CC(C)(Cc1ccccc1)NCC(O)COc1ccc(C(C)(C)C)cc1 (centres unmarked) [Compound 54]
pIC50 [2, 3]: < 4.30

COc1ccc(CCC(C)(C)NCC(O)COc2ccccc2)cc1 (centres unmarked) [Compound 90, N-(2-Hydroxy-3-phenoxypropyl)-1,1-dimethyl-3-(4-methoxyphenyl)propylamine Hydrochloride]
pIC50 [2, 3]: > 4.30

COc1ccc(CC(C)(C)NC[C@H](O)COc2cccc3ccccc23)cc1 (single isomer, unassigned) [Compound 106, Hydrochloride]
pIC50 [2, 3]: > 6.00

COc1ccc(CC(C)(C)NC[C@@H](O)COc2cccc(Cl)c2C#N)cc1 [Compound 109, (R)—N-[2-Hydroxy-3-(3-chloro-2-cyanophenoxy)propyl]-1,1-dimethyl-2-(4-methoxyphenyl)-ethylamine Hydrochloride]
pIC50 [2, 3]: > 6.00

CCc1ccc(OCC(O)CNC(C)(C)Cc2ccc(OC)cc2)cc1 (centres unmarked) [Compound 141, N-[2-hydroxy-3-(4-ethylphenoxy)propyl]-1,1-dimethyl-2-(4-methoxyphenyl)ethylamine Hydrochloride]
pIC50 [2, 3]: > 6.00

C=CCCCCCCC(O)CNC(C)(C)Cc1ccc(OC)cc1 (centres unmarked) [Compound 71, N-(2-Hydroxydec-9-enyl)-1,1-dimethyl-2-(4-methoxyphenyl)ethylamine]
pIC50 [2]: > 5.00

CC(C)(Cc1ccccc1)NCC(O)COc1ccccc1 (centres unmarked) [Compound 56, N-(2-Hydroxy-3-phenoxypropyl)-1,1-dimethyl-2-phenylethylamine Hydrochloride]
pIC50 [2, 3]: > 4.30

COc1ccc(CC(C)(C)NCC(O)COc2ccccc2C(C)C)cc1 (centres unmarked) [Compound 153, N-[2-hydroxy-3-(2-iso-propylphenoxy)propyl]-1,1-dimethyl-2-(4-methoxyphenyl)ethylamine Hydrochloride]
pIC50 [2, 3]: > 6.00

COc1ccc(CC(C)(C)NCCCCc2ccccc2)cc1 [Compound 24, N-(4-phenylbutyl)-1,1-dimethyl-2-(4-methoxyphenyl)ethylamine]
pIC50 [2]: < 4.30

CCCCCCCCC(O)CNC(C)(C)Cc1ccc(OC)cc1 (centres unmarked) [Compound 69, N-(2-Hydroxydecanyl)-1,1-dimethyl-2-(4-methoxyphenyl)ethylamine]
pIC50 [2]: > 6.00

CC(C)(Cc1ccc(F)cc1)NCC(O)COc1cccc2ccccc12 (centres unmarked) [Compound 2, N-[2-Hydroxy-3-(1-naphthoxy)propyl]-1,1-dimethyl-2-(4-fluorophenyl)ethylamine Hydrochloride]
pIC50 [2, 3]: > 5.00

COc1ccc(CC(C)(C)NCC(O)COc2cc(Cl)cc(Cl)c2)cc1 (centres unmarked) [Compound 137, N-[2-hydroxy-3-(3,5-dichlorophenoxy)propyl]-1,1-dimethyl-2-(4-methoxyphenyl)ethylamine Hydrochloride]
pIC50 [2, 3]: > 6.00

COc1ccc(CC(C)(C)NCC(O)COc2ccccc2C)cc1 (centres unmarked) [Compound 8, N-[2-Hydroxy-3-(2-methylphenoxy)propyl]-1,1-dimethyl-2-(4-methoxyphenyl)ethylamine Hydrochloride]
pIC50 [2, 3]: > 5.00

COc1ccc(CC(C)(C)NCC(O)CSc2ccccc2)cc1 (centres unmarked) [Compound 68, N-(2-Hydroxy-3-thiophenylpropyl)-1,1-dimethyl-2-(4-methoxyphenyl)ethylamine]
pIC50 [2]: > 5.00

COc1ccc(CC(C)(C)NC[C@@H](O)COc2cccc(Cl)c2Cl)cc1 [Compound 115, (R)—N-[2-Hydroxy-3-(2,3-dichlorophenoxy)propyl]-1,1-dimethyl-2-(4-methoxyphenyl)ethylamine Hydrochloride]
pIC50 [2, 3]: > 6.00

CC(C)(Cc1cccc2ccccc12)NCC(O)COc1ccccc1 (centres unmarked) [Compound 92, N-(2-hydroxy-3-phenoxypropyl)-1,1-dimethyl-2-(1-naphthyl)ethylamine]
pIC50 [2, 3]: < 4.30

COc1ccc(CC(C)(C)NCC(O)COc2ccccc2)cc1 (centres unmarked) [Compound 3, N-(2-Hydroxy-3-phenoxypropyl)-1,1-dimethyl-2-(4-methoxyphenyl)ethylamine Hydrochloride]
pIC50 [2, 3]: > 5.00

CCCCCCOCC(O)CNC(C)(C)Cc1ccc(OC)cc1 (centres unmarked) [Compound 66, N-(2-Hydroxy-3-hexanoxypropyl)-1,1-dimethyl-2-(4-methoxyphenyl)ethylamine]
pIC50 [2]: > 5.00

COc1ccc(CC(C)(C)NCC(O)COc2ccc(NC(C)=O)cc2)cc1 (centres unmarked) [Compound 58, N-[2-hydroxy-3-(4-acetamidophenoxy)propyl]-1,1-dimethyl-2(4-methoxyphenyl)ethylamine]
pIC50 [2, 3]: < 4.30

COc1ccc(CC(C)(C)NCC(O)COc2ccccc2)cc1F (centres unmarked) [Compound 128, N-(2-hydroxy-3-phenoxypropyl)-1,1-dimethyl-2-(3-fluoro-4-methoxyphenyl) ethylamine]
pIC50 [2, 3]: > 5.00

COC(=O)c1ccccc1OCC(O)CNC(C)(C)Cc1ccc(OC)cc1 (centres unmarked) [Compound 134, N-[2-hydroxy-3-(2-carbomethoxyphenoxy)propyl]-1,1-dimethyl-2-(4-methoxyphenyl)ethylamine Hydrochloride]
pIC50 [2, 3]: > 6.00

COc1ccc(CC(C)(C)NCC(O)COc2cc(OC)cc(OC)c2)cc1 (centres unmarked) [Compound 133, N-[2-hydroxy-3-(3,5-dimethoxyphenoxy)propyl]-1,1-dimethyl-2-(4-methoxyphenyl)ethylamine Hydrochloride]
pIC50 [2, 3]: > 6.00

COc1ccc(CC(C)(C)NCC(O)COc2cccc3c(OC)cccc23)cc1 (centres unmarked) [Compound 130, N-[2-hydroxy-3-(5-methoxy-1-napthoxy)propyl]-1,1-dimethyl-2-(4-methoxyphenyl)ethylamine Hydrochloride]
pIC50 [2, 3]: > 6.00

COc1ccc(CC(C)(C)NC[C@@H](O)COc2cccc3ccccc23)cc1 (single isomer, unassigned) [Compound 105, Hydrochloride]
pIC50 [2, 3]: > 6.00
